Like-named read-outs stand apart in the source and are kept apart here.
Legend:
[1] = Risk categorization of statins for coadministration with encorafenib; conditions: qualitative, from metabolic and transporter profile
CYP2B6 [2] = type: in vivo, Human
CYP2B6 [3] = conditions: in vitro; cited from earlier work
OATP1B1/3 = conditions: in vitro, potent inhibitor; cited from earlier work
[4] = cited from earlier work
CYP2B6 [5] = conditions: in vitro hepatocyte assay, clinically relevant plasma concentrations; cited from earlier work
[6] = test system: OATP1B1, OATP1B3, and BCRP; type: in vivo, Human; conditions: phase 1 study and exploratory CP-I analysis
[7] = Phase 1 DDI study: plasma PK of encorafenib; type: in vivo; conditions: human, oral, GM (CV%); for AUC(0-t): AUClast
BCRP [8] = conditions: in vitro, weak inhibitor; cited from earlier work
CYP3A4 = conditions: cited from earlier work
CYP2D6 = conditions: cited from earlier work
CYP2C19 = conditions: cited from earlier work
BCRP [9] = conditions: cited from earlier work
[10] = type: in vivo, Human; conditions: single oral administrations on days −7, 1 and 14
CYP2B6 and CYP3A4 = conditions: strong inducer of CYP2B6 and CYP3A4; cited from earlier work
OATP1B1 [11] = conditions: strong inhibitor of OATP1B1; cited from earlier work
OATP1B1 [12] = molecular target: T1, OATP1B1 (Homo sapiens, UniProt Q9Y6L6); assay: Maximum fold change of plasma CP-I in phase 3 safety lead-in participants; type: in vivo; conditions: SLI phase, encorafenib 300 mg QD + cetuximab
T1 sequence (Q9Y6L6 1-691): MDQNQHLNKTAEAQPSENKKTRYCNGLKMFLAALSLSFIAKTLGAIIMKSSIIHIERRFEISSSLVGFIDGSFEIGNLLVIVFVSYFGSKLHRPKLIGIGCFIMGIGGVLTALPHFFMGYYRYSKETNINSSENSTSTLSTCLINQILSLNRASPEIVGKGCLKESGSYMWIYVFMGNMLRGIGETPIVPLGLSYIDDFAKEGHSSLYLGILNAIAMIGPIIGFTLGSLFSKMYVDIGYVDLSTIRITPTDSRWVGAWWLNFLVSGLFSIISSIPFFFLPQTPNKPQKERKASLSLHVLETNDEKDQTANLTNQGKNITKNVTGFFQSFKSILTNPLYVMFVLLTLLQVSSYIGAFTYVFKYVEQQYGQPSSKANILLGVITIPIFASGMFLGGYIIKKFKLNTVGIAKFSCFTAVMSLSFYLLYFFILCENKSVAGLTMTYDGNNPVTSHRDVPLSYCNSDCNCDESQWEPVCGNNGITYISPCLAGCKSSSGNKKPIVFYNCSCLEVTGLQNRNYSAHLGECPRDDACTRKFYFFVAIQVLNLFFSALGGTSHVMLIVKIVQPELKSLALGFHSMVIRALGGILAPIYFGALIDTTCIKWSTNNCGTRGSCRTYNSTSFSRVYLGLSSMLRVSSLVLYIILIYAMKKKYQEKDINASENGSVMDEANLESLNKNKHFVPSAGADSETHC

Compound: CC(C)c1c(C(=O)Nc2ccccc2)c(-c2ccccc2)c(-c2ccc(F)cc2)n1CC[C@@H](O)C[C@@H](O)CC(=O)O [Atorvastatin]
- Risk category following coadministration with encorafenib [1]: at risk of loss of efficacy

Compound: CC(NC(C)(C)C)C(=O)c1cccc(Cl)c1 (centres unmarked) [Bupropion, bupropion]
- Decrease in AUClast compared with administration on its own (CYP2B6 [2]; following repeated doses of encorafenib and binimetinib): 26%
- Decrease in AUClast compared with administration on its own (CYP2B6 [2]; following single dose of encorafenib and binimetinib): 23%

Compound: COC(=O)N[C@@H](C)CNc1nccc(-c2cn(C(C)C)nc2-c2cc(Cl)cc(NS(C)(=O)=O)c2F)n1 [Encorafenib, encorafenib]
- Clinical CYP2B6 inhibition (conclusion) (CYP2B6 [2]; bupropion probe, after a single dose of encorafenib): does not act as an inhibitor of CYP2B6
- Clinical CYP2B6 induction (conclusion) (CYP2B6 [2]; bupropion probe, steady-state encorafenib): likely not a clinically relevant inducer of CYP2B6
- Unbound R1 value (reversible inhibition) (CYP2B6 [3]): 3.1
- R values (inhibition) (OATP1B1/3): ≥ 1.1
- Steady-state exposure lower compared with exposure following a single dose ([4]; autoinduction of CYP3A4): approximately 50%
- Estimated bioavailability ([4]; oral, no reference given): at least 86%
- Time to peak concentrations ([4]; oral, no reference given): ≤ 2 h
- R3 values (induction) (CYP2B6 [5]): < 0.9
- Clinical BCRP inhibition (conclusion) [6]: likely an inhibitor of BCRP
- Clinical OATP1B1/3 inhibition (conclusion) [6]: may also inhibit OATP1B1/3 to a lesser extent
- AUC(0-t) ([7]; encorafenib single dose (day 1)): 25900 ng·h/mL
- AUC(0-t) ([7]; encorafenib steady state (day 14)): 13100 ng·h/mL
- Cmax ([7]; Cmax, encorafenib steady state (day 14), n=10): 2940 ng/mL
- R values (inhibition) (BCRP [8]): ≥ 1.1
- Share of metabolism (CYP3A4): 83%
- Share of metabolism (CYP2D6): 1%
- Share of metabolism (CYP2C19): 16%

Compound: C[C@H]1NC(C)(C)CO[C@]1(O)c1cccc(Cl)c1 [Hydroxybupropion, hydroxybupropion]
- Change in AUClast (CYP2B6 [2]; following a single dose of encorafenib and binimetinib): not changed
- Increase in AUClast (CYP2B6 [2]; with repeated doses of encorafenib and binimetinib): 48%

Compound: CC[C@H](C)C(=O)O[C@H]1C[C@@H](C)C=C2C=C[C@H](C)[C@H](CC[C@@H]3C[C@@H](O)CC(=O)O3)[C@H]21 [Lovastatin]
- Risk category following coadministration with encorafenib [1]: at risk of loss of efficacy

Compound: O=C(O)C[C@H](O)C[C@H](O)/C=C/c1c(C2CC2)nc2ccccc2c1-c1ccc(F)cc1 [Pitavastatin]
- Risk category following coadministration with encorafenib [1]: highest risk of increased exposure

Compound: CC[C@H](C)C(=O)O[C@H]1C[C@H](O)C=C2C=C[C@H](C)[C@H](CC[C@@H](O)C[C@@H](O)CC(=O)O)[C@H]21 [Pravastatin]
- Risk category following coadministration with encorafenib [1]: least likely to be affected

Compound: CC(C)c1nc(N(C)S(C)(=O)=O)nc(-c2ccc(F)cc2)c1/C=C/[C@@H](O)C[C@@H](O)CC(=O)O [Rosuvastatin, rosuvastatin]
- Risk category following coadministration with encorafenib [1]: highest risk of increased exposure
- Theoretical maximum fold-change in exposure based on BCRP alone (BCRP [9]): 2 fold
- Tmax [10]: 2 h

Compound: NC(=O)N1c2ccccc2C=Cc2ccccc21 [carbamazepine]
- Effect of treatment on bupropion and hydroxybupropion (CYP2B6 and CYP3A4): substantial decrease in bupropion and increase in hydroxybupropion

Compound: CO[C@H]1/C=C/O[C@@]2(C)Oc3c(C)c(O)c4c(O)c(c(/C=N/N5CCN(C)CC5)c(O)c4c3C2=O)NC(=O)/C(C)=C\C=C\[C@H](C)[C@H](O)[C@@H](C)[C@@H](O)[C@@H](C)[C@H](OC(C)=O)[C@@H]1C [rifampin]
- Plasma CP-I maximum fold-change (OATP1B1 [11]): approximately 6 fold

Compound: Coproporphyrin I [CP-I]
- Observed maximum fold change in CP-I concentrations (OATP1B1 [12]; C1D1 (single dose), CRC patients): 1.4 fold
- Observed maximum fold change in CP-I concentrations (OATP1B1 [12]; C2D1): 1.2 fold

— PMC11052825 (Clinical Pharmacokinetics, 2024)
